Measurements: patent US20190022016A1, “COMPOSITIONS FOR SUSTAINED RELEASE OF ANTI-GLAUCOMA AGENTS TO CONTROL INTRAOCULAR PRESSURE” (The Johns Hopkins University, priority 2016, published 2019)

Columns and labels:
[1] = systemic; cited from earlier work
[2] = In vitro drug release from microparticles in PBS; format: physicochemical; settings: for duration of in vitro drug release: PBS pH 7.4, 37° C., infinite sink, PEG3-PSA microparticles, 2% PEG; for drug released during the first 6 days / release over the initial 24 hours: from PEG3-PSA, infinite sink conditions
Method: PEG3-PSA is a polyanhydride polymer that undergoes surface erosion to deliver continuous drug release and has been previously used for ocular delivery. Particle disappearance parallels drug release due to surface erosion. Particles were suspended in phosphate buffered saline (PBS, pH 7.4) at 5 mg/mL and incubated at 37° C. on a rotating platform (140 RPM). At selected time points, supernatant was collected by centrifugation (8,000×g for 5 min) and particles were resuspended in fresh PBS. Drug content was measured by spectraphotometer.

| SMILES | IOP reduction [1] [%] | duration of in vitro drug release [2] [days] | drug released during the first 6 days [2] [%] | release over the initial 24 hours [2] [%] |
| --- | --- | --- | --- | --- |
| CC(=O)Nc1nnc(S(N)(=O)=O)s1 [acetazolamide] | 30 | – | – | – |
| CCN[C@H]1CN(CCCOC)S(=O)(=O)c2sc(S(N)(=O)=O)cc21 [brinzolamide] | – | 12 | 80 | 12 |
| CCN[C@H]1C[C@H](C)S(=O)(=O)c2sc(S(N)(=O)=O)cc21 [dorzolamide] | – | 12 | 80 | 18 |
